In patent US8562946B2, “Miniaturized 62Zn/62Cu generator for high concentration clinical delivery of 62Cu kit formulation for the facile preparation of radiolabeled Cu-bis(thiosemicarbazone) compounds” (Proportional Technologies, Inc., priority 2003, dated 2013):
Like-named read-outs stand apart in the source and are kept apart here. One block for each compound: values may come before it.

Columns and labels:
[1] = octanol/water partition coefficients of Cu bis(thiosemicarbazone) complexes; assay type: physicochemical
[2] = cited from earlier work
[3] = ligand solubility (DMSO, water); assay type: physicochemical; details: crystalline form dissolved in DMSO
Description: Studies evaluating the compatibility of the bis(thiosemicarbazone) ligands with lyophilization based kit synthesis were conducted using H2PTSM as a model compound. The first of these studies evaluated the feasibility of ligand lyophilization and rapid reconstitution. The entire class of bis(thiosemicarbazone) compounds is very insoluble in water. Consequently, in order to prepare a principally aqueous solution for lyophilization, the crystalline form of the H2PTSM was dissolved at the maximum concentration in dimethylsulfoxide (DMSO), (200 mg/mL H2PTSM). […] To minimize the possibility of ligand precipitation, the DMSO solution was added to hot water (90° C.) during rapid stifling. This solution was then cooled to room temperature and assayed for potency using a spectrophotometer. The very small amount of DMSO in the aqueous solution is expected to sublimate along with water during lyophilization. In order to ensure maximum potency after lyophilization, an excipient (either dextrose [6.7 mg/mL], trehalose [6.7 mg/mL] or sodium acetate [5.4 mg/mL]) was added. The purpose of the excipient was to prevent the ligand from crystallizing out by maintaining dispersion in the cake formed during lyophilization. The sodium acetate performed the added function of buffering the final product to acceptable pH upon addition of 0.1-0.15 mL of ^62Zn/^62Cu generator eluted solution. […]

[4] = in humans; cited from earlier work
[5] = most animal species other than humans; cited from earlier work

Structure (SMILES): CCC(C=NNC(N)=S)=NNC(N)=S.[Cu] [ETS, ^62Cu ethylglyoxal bis(thiosemicarbazone)]
log P ([1]; octanol/water, from measured partition coefficients P of the corresponding 67Cu-complexes): 1.35 | binding to blood plasma [2]: low reversible binding

Structure (SMILES): CNC(=S)NN=C(C)C(C)=NNC(=S)NC [H2ATSM, diacetyl-bis(N4-methylthiosemicarbazone)]
difference in octanol/water partition coefficients ([1]; H2ATSM vs H2PTSM (Table 2)): 0.34

maximum concentration in dimethylsulfoxide (DMSO) [3]: 200 mg/mL
Structure (SMILES): CNC(=S)NN=CC(C)=NNC(=S)NC [H2PTSM, pyruvaldehyde bis(N4-methylthiosemicarbazone)]

Structure (SMILES): CN=C([S-])N/N=C/C(C)=N/NC([S-])=NC.[Cu+2] [PTSM, Copper(II) ^62Cu pyruvaldehyde bis(N4-methylthiosemicarbazone)]
binding to blood [4]: significant binding | binding to blood [5]: low binding
